Test results taken from US12714696B2, “Low dose fluralaner compositions for protection against parasitic invertebrate pest” (VIRBAC, priority 2019, dated 2026).
Values joined by “and” are separate entries in the source; they are usually repeats but may differ in a detail not shown here. Equal entries are not always repeated. Where two headings read alike, the source gives them in different places.

Test: Pharmacokinetics after repeated oral administration of 250 μg/kg and 35 μg/kg of fluralaner in dogs after feeding
Format: in vivo, beagle dogs
Conditions: for concentration at 24 h / concentration at 48 h / concentration at 72 h / concentration at 96 h / concentration at 120 h / concentration at 144 h: beagle, dog, plasma, po
Experimental: The first objective is to obtain the pharmacokinetic parameters after repeated oral administration of […] and 35 μg/kg of fluralaner in dogs after feeding.
The second objective is to investigate the pharmacodynamics between the fluralaner plasmatic dose and the effectiveness against ticks. • IVP: Investigational Veterinary Product, is pure Fluralaner+DMSO (250 μg/kg on Days 0 to 3 (0.25 mL/kg), then 35 μg/kg on Days 4 to 9 (0.35 mL/kg), then 600 μg/kg on Day 11) • Control product is DMSO (0.25 mL/kg on Days 0 to 3, then 0.35 mL/kg on Days 4 to 9)
On Days 0, 1, 2 and 3, all dogs assigned to group 2 received the Investigational Veterinary Product. On Days 0 to 3 all dogs in group 1 received the control product at a volume equal to the dogs in group 2. Dogs assigned to group 1 received the control product and served as Placebo controls. The quantity of Investigational Veterinary Product and control product administered was calculated according to the dog's individual body weight measured on Day −1. […]
On days of administration of pre-Investigational Veterinary Product or Control Product, dogs were fed (the same dog food) approximately half of their normal daily ration 30 minutes to 35 minutes prior to administration. Food consumed by the time of administration was calculated and recorded. The remainder of their normal daily ration was fed immediately after administration.
The PK parameters of fluralaner were calculated using a non-compartmental approach.
The following rules were applied for the calculation of the PK parameters: • All the plasma concentrations, validated by the bioanalytical laboratory, were used for the PK analysis. • The actual blood sampling times were used throughout. • Concentrations below the Limit of Quantification (LOQ) value were considered as zero from time zero (pre-dose) up to the time at which the first quantifiable concentration above the LOQ value was observed. Concentrations below the LOQ value between two quantifiable concentrations were considered as missing. Trailing concentrations below the LOQ value were not used in calculations.
Cmax the observed maximum concentration in plasma measured after dosing.
λz the terminal rate constant (λz) was estimated by log-linear regression analysis on data points visually assessed, to be on the terminal log-linear phase. For the slope of the terminal elimination phase to be accepted as reliable, the following criteria were used: • the terminal data points were apparently randomly distributed about a single straight line (on visual inspection), • a minimum of three data points, including the last measured data point and excluding Cmax, were available for the regression.
t1/2 the terminal plasma half-life (t1/2) was calculated according to the following equation: […]

In the case of Cc1cc(C2=NOC(c3cc(Cl)cc(Cl)c3)(C(F)(F)F)C2)ccc1C(=O)NCC(=O)NCC(F)(F)F (stereo not drawn) [fluralaner, Fluralaner], the “fluralaner concentration levels, individual animal” value (“fluralaner concentration levels” for short) (24 h, oral 250 μg/kg Days 0-3, 35 μg/kg Days 4-9, 600 μg/kg Day 11, dogs) was 142 ng/mL and 158 ng/mL and 129 ng/mL, the “fluralaner concentration levels” value (48 h, oral 250 μg/kg Days 0-3, 35 μg/kg Days 4-9, 600 μg/kg Day 11, dogs) was 269 ng/mL and 283 ng/mL and 253 ng/mL and the “fluralaner concentration levels” value (72 h, oral 250 μg/kg Days 0-3, 35 μg/kg Days 4-9, 600 μg/kg Day 11, dogs) was 381 ng/mL and 378 ng/mL and 373 ng/mL. For the same compound, the “fluralaner concentration levels” value (96 h, oral 250 μg/kg Days 0-3, 35 μg/kg Days 4-9, 600 μg/kg Day 11, dogs) was 496 ng/mL and 572 ng/mL and 515 ng/mL, the “fluralaner concentration levels” value (120 h, oral 250 μg/kg Days 0-3, 35 μg/kg Days 4-9, 600 μg/kg Day 11, dogs) was 465 ng/mL and 535 ng/mL and 554 ng/mL and the “fluralaner concentration levels” value (144 h, oral 250 μg/kg Days 0-3, 35 μg/kg Days 4-9, 600 μg/kg Day 11, dogs) was 510 ng/mL and 447 ng/mL and 454 ng/mL. For the same compound, the “fluralaner concentration levels” value (168 h, oral 250 μg/kg Days 0-3, 35 μg/kg Days 4-9, 600 μg/kg Day 11, dogs) was 521 ng/mL and 536 ng/mL and 520 ng/mL, the “fluralaner concentration levels” value (192 h, oral 250 μg/kg Days 0-3, 35 μg/kg Days 4-9, 600 μg/kg Day 11, dogs) was 456 ng/mL and 558 ng/mL and 455 ng/mL and the “fluralaner concentration levels” value (216 h, oral 250 μg/kg Days 0-3, 35 μg/kg Days 4-9, 600 μg/kg Day 11, dogs) was 468 ng/mL and 551 ng/mL and 472 ng/mL and 493 ng/mL. For the same compound, the “fluralaner concentration levels” value (240 h, oral 250 μg/kg Days 0-3, 35 μg/kg Days 4-9, 600 μg/kg Day 11, dogs) was 423 ng/mL and 368 ng/mL and 724 ng/mL and 422 ng/mL, the “fluralaner concentration levels” value (384 h, oral 250 μg/kg Days 0-3, 35 μg/kg Days 4-9, 600 μg/kg Day 11, dogs) was 893 ng/mL and 523 ng/mL and 715 ng/mL and 1000 ng/mL and the “fluralaner concentration levels” value (528 h, oral 250 μg/kg Days 0-3, 35 μg/kg Days 4-9, 600 μg/kg Day 11, dogs) was 267 ng/mL and 373 ng/mL and 235 ng/mL and 517 ng/mL and 283 ng/mL. For the same compound, the “fluralaner concentration levels” value (624 h, oral 250 μg/kg Days 0-3, 35 μg/kg Days 4-9, 600 μg/kg Day 11, dogs) was 223 ng/mL and 280 ng/mL and 182 ng/mL and 403 ng/mL and 227 ng/mL, the “fluralaner concentration levels” value (720 h, oral 250 μg/kg Days 0-3, 35 μg/kg Days 4-9, 600 μg/kg Day 11, dogs) was 285 ng/mL and 275 ng/mL and 248 ng/mL and 187 ng/mL and the steady state concentrations (after the fourth dose application 250 μg/kg per day (on Day 3)) was “not been reached”. For the same compound, the concentration at 24 h (24 h, oral 250 μg/kg Days 0-3, 35 μg/kg Days 4-9, 600 μg/kg Day 11, dogs, read-out: fluralaner concentration levels, individual animal) was 160 ng/mL, the concentration at 24 h (24 h, oral 250/35/600 μg/kg regimen, dogs, n=6, read-out: fluralaner concentration levels, GeoMean) was 145 ng/mL and the concentration at 24 h (24 h, oral 250/35/600 μg/kg regimen, dogs, n=6, read-out: fluralaner concentration levels, Maximum) was 160 ng/mL. It also gave a concentration at 24 h (24 h, oral 250/35/600 μg/kg regimen, dogs, n=6, read-out: fluralaner concentration levels, Mean) of 146 ng/mL, a concentration at 24 h (24 h, oral 250/35/600 μg/kg regimen, dogs, n=6, read-out: fluralaner concentration levels, Median) of 146 ng/mL and a concentration at 24 h (24 h, oral 250/35/600 μg/kg regimen, dogs, n=6, read-out: fluralaner concentration levels, Minimum) of 129 ng/mL. For the same compound, the concentration at 48 h (48 h, oral 250 μg/kg Days 0-3, 35 μg/kg Days 4-9, 600 μg/kg Day 11, dogs, read-out: fluralaner concentration levels, individual animal) was 257 ng/mL, the concentration at 48 h (48 h, oral 250/35/600 μg/kg regimen, dogs, n=6, read-out: fluralaner concentration levels, GeoMean) was 269 ng/mL and the concentration at 48 h (48 h, oral 250/35/600 μg/kg regimen, dogs, n=6, read-out: fluralaner concentration levels, Maximum) was 312 ng/mL. The concentration at 48 h (48 h, oral 250/35/600 μg/kg regimen, dogs, n=6, read-out: fluralaner concentration levels, Mean) was 270 ng/mL, the concentration at 48 h (48 h, oral 250/35/600 μg/kg regimen, dogs, n=6, read-out: fluralaner concentration levels, Median) was 263 ng/mL and the concentration at 48 h (48 h, oral 250/35/600 μg/kg regimen, dogs, n=6, read-out: fluralaner concentration levels, Minimum) was 245 ng/mL. It also gave a concentration at 72 h (72 h, oral 250 μg/kg Days 0-3, 35 μg/kg Days 4-9, 600 μg/kg Day 11, dogs, read-out: fluralaner concentration levels, individual animal) of 366 ng/mL, a concentration at 72 h (72 h, oral 250/35/600 μg/kg regimen, dogs, n=6, read-out: fluralaner concentration levels, GeoMean) of 386 ng/mL and a concentration at 72 h (72 h, oral 250/35/600 μg/kg regimen, dogs, n=6, read-out: fluralaner concentration levels, Maximum) of 469 ng/mL. For the same compound, the concentration at 72 h (72 h, oral 250/35/600 μg/kg regimen, dogs, n=6, read-out: fluralaner concentration levels, Mean) was 388 ng/mL, the concentration at 72 h (72 h, oral 250/35/600 μg/kg regimen, dogs, n=6, read-out: fluralaner concentration levels, Median) was 376 ng/mL and the concentration at 72 h (72 h, oral 250/35/600 μg/kg regimen, dogs, n=6, read-out: fluralaner concentration levels, Minimum) was 361 ng/mL. The concentration at 96 h (96 h, oral 250 μg/kg Days 0-3, 35 μg/kg Days 4-9, 600 μg/kg Day 11, dogs, read-out: fluralaner concentration levels, individual animal) was 497 ng/mL, the concentration at 96 h (96 h, oral 250/35/600 μg/kg regimen, dogs, n=6, read-out: fluralaner concentration levels, GeoMean) was 524 ng/mL and the concentration at 96 h (96 h, oral 250/35/600 μg/kg regimen, dogs, n=6, read-out: fluralaner concentration levels, Maximum) was 602 ng/mL. It also gave a concentration at 96 h (96 h, oral 250/35/600 μg/kg regimen, dogs, n=6, read-out: fluralaner concentration levels, Mean) of 526 ng/mL, a concentration at 96 h (96 h, oral 250/35/600 μg/kg regimen, dogs, n=6, read-out: fluralaner concentration levels, Median) of 506 ng/mL and a concentration at 96 h (96 h, oral 250/35/600 μg/kg regimen, dogs, n=6, read-out: fluralaner concentration levels, Minimum) of 471 ng/mL. For the same compound, the concentration at 120 h (120 h, oral 250 μg/kg Days 0-3, 35 μg/kg Days 4-9, 600 μg/kg Day 11, dogs, read-out: fluralaner concentration levels, individual animal) was 495 ng/mL, the concentration at 120 h (120 h, oral 250/35/600 μg/kg regimen, dogs, n=6, read-out: fluralaner concentration levels, GeoMean) was 508 ng/mL and the concentration at 120 h (120 h, oral 250/35/600 μg/kg regimen, dogs, n=6, read-out: fluralaner concentration levels, Maximum) was 554 ng/mL. The concentration at 120 h (120 h, oral 250/35/600 μg/kg regimen, dogs, n=6, read-out: fluralaner concentration levels, Mean) was 509 ng/mL, the concentration at 120 h (120 h, oral 250/35/600 μg/kg regimen, dogs, n=6, read-out: fluralaner concentration levels, Median) was 515 ng/mL and the concentration at 120 h (120 h, oral 250/35/600 μg/kg regimen, dogs, n=6, read-out: fluralaner concentration levels, Minimum) was 465 ng/mL. The concentration at 144 h (144 h, oral 250 μg/kg Days 0-3, 35 μg/kg Days 4-9, 600 μg/kg Day 11, dogs, read-out: fluralaner concentration levels, individual animal) was 497 ng/mL, the concentration at 144 h (144 h, oral 250/35/600 μg/kg regimen, dogs, n=6, read-out: fluralaner concentration levels, GeoMean) was 491 ng/mL and the concentration at 144 h (144 h, oral 250/35/600 μg/kg regimen, dogs, n=6, read-out: fluralaner concentration levels, Maximum) was 550 ng/mL. It also gave a concentration at 144 h (144 h, oral 250/35/600 μg/kg regimen, dogs, n=6, read-out: fluralaner concentration levels, Mean) of 492 ng/mL, a concentration at 144 h (144 h, oral 250/35/600 μg/kg regimen, dogs, n=6, read-out: fluralaner concentration levels, Median) of 496 ng/mL and a concentration at 144 h (144 h, oral 250/35/600 μg/kg regimen, dogs, n=6, read-out: fluralaner concentration levels, Minimum) of 447 ng/mL.
